The subject of this series is convulsions in mice induced by electrical stimulation. Kind of series: anticonvulsant effect on mice induced by electrical stimulation. It is filed as in vivo. As to conditions: compared with blank group. As to the method:
(1) Divide 40 mice (20♀20) into 5 groups at random, with 8 mice (4♀4) in each group, and label No. 1 to No. 8 with picric acid respectively; (2) All mice were tested according to the order of groups and labels electrical stimulation, the initial voltage was 40V, the voltage was increased by 2.5V each time, the time interval between two electrical stimulations for the same mouse was 20 min, the threshold voltage value of convulsion and the time from convulsion to complete recovery were recorded, and the dead mice were discarded, qualified mice were screened; (3) After screening, 7 mice (2♀5) in the 40 mice could not recover after convulsions and died, and the remaining 33 qualified mice […]; (4) From standby 7 mice were screened out as a supplement, and the number of the dead mice in step (2) was marked with picric acid and added to the corresponding groups, so that a total of 40 (20♀20) qualified mice in 5 groups were finally obtained., all mice were weighed and recorded.
Positive drug: sodium valproate (specification 0.2 g), take 1 tablet in a mortar, add 20 ml of 0.5% CMC-Na solution while grinding, to a suspended state, set EP tube for use; test drug (compound 5): Dissolve in distilled water to 5, 10, and 20 mg/ml solutions, respectively, and set EP tubes for later use.
Electrical stimulation was performed 1.5 hours after the last administration, and each mouse was given the threshold voltage measured before to observe the experimental phenomenon and record whether there was convulsions and death occurred.
The first group was the blank control group, which was given 0.4 ml/20 g of 0.5% CMC-Na by gavage; the second group was the positive drug control group, which was given sodium valproate 200 mg/kg by gavage; the third group was the test drug the low-dose group, which was given 100 mg/kg of compound 5 by gavage; the fourth group was the test drug medium-dose group, which was given 200 mg/kg of compound 5 by gavage; the fifth group was the test drug high-dose group, which was given 400 mg/kg of compound 5 by gavage.
1.5 h after the last administration, electrical stimulation was performed according to the threshold voltage measured before each mouse, the experimental phenomenon was observed, and the occurrence of convulsions and death were recorded. If convulsion occurs, record the time of complete recovery; if no convulsion occurs, continue to increase the voltage with a gradient of 2.5V to measure the current threshold voltage value and recovery time.
Strictly follow the 5 periods of convulsion in mice, namely, latency period, rigid flexion period, hindlimb extension period, clonic period and recovery period to judge whether the mice have convulsions after electrical stimulation, and the phenomenon of death can not be recovered after convulsions.

Molecules are shown by their SMILES. Structures can show the parent of a compound that is named as a salt.

With `CC(C)c1cccc(C(C)C)c1OC(=O)CC1(CN(C)C)CCCCC1` [Compound 5, 2,6-diisopropylphenyl 2-(1-((dimethylamino)methyl)cyclohexyl)acetate hydrochloride], the “anti-electrical convulsion ability (threshold voltage increase)” value is given as “no significant effect” (100 mg/kg gavage, p>0.05); “no significant effect” (200 mg/kg gavage, p>0.05); “significantly improve” (400 mg/kg gavage, p<0.01). Under “sodium valproate 200 mg/kg, compound 5 100, 200, 400 mg/kg gavage, p>0.05”, the “weight gain of mice” value was “no difference”.

Source of the values: US20250082760A1 (priority 2020, published 2025).
